Test results taken from ChEMBL document CHEMBL5360538, “Recent updates on 1,2,3-triazole-containing hybrids with in vivo therapeutic potential against cancers: A mini-review” (Eur J Med Chem, 2023).

Columns and labels:
[1] = system: PC-9; test: Antiproliferative activity against human PC-9 cells assessed as inhibition of cell growth by MTT assay; format: functional, cell-based
[2] = system: NCI-H460; test: Antiproliferative activity against human NCI-H460 cells assessed as inhibition of cell growth by MTT assay; format: functional, cell-based
[3] = system: NCI-H1975; test: Antiproliferative activity against human NCI-H1975 cells assessed as inhibition of cell growth by MTT assay; format: functional, cell-based
[4] = system: A549; test: Antiproliferative activity against human A549 cells assessed as inhibition of cell growth by MTT assay; format: functional, cell-based
[5] = system: PC-9; test: Antitumor activity against human PC-9 cells xenografted in NSG mouse model assessed as inhibition of tumor growth at 25 mg/kg, ip qd administered every day for 7 consecutive days relative to control; format: functional; conditions: PC-9, 168 h, time 7 day
[6] = system: 4T1; test: Antitumor activity against mouse 4T1 cells overexpressing IDO1 implanted in BALB/c mouse model assessed as inhibition of tumor growth at 25 mg/kg, ip qd administered every day for 8 consecutive days and measured after 14 days relative to control; format: functional; conditions: 4T1, 336 h, time 14 day
[7] = system: B16-F10; test: Antitumor activity against mouse B16-F10 cells implanted in melanoma mouse model assessed as inhibition of tumor growth at 20 mg/kg, po relative to control; format: functional
[8] = system: NCI-H211; test: Antiproliferative activity against human NCI-H211 cells assessed as reduction in cell viability by MTS assay; format: functional, cell-based
[9] = system: MDA-MB-231; test: Antiproliferative activity against human MDA-MB-231 cells assessed as reduction in cell viability by MTS assay; format: functional, cell-based
[10] = system: MCF7; test: Antiproliferative activity against drug-sensitive human MCF7 cells assessed as inhibition of cell growth by MTT assay; format: functional, cell-based
[11] = system: MDA-MB-231; test: Antiproliferative activity against drug-sensitive human MDA-MB-231 cells assessed as inhibition of cell growth by MTT assay; format: functional, cell-based
[12] = system: BT-474; test: Antiproliferative activity against drug-sensitive human BT-474 cells assessed as inhibition of cell growth by MTT assay; format: functional, cell-based
[13] = system: SK-BR-3; test: Antiproliferative activity against drug-sensitive human SK-BR-3 cells assessed as inhibition of cell growth by MTT assay; format: functional, cell-based
[14] = Antiproliferative activity against human Tamoxifen-resistant MCF7 cells assessed as inhibition of cell growth by MTT assay; format: functional, cell-based
[15] = Antiproliferative activity against human Trastuzumab-resistant BT-474 cells assessed as inhibition of cell growth by MTT assay; format: functional, cell-based, Trastuzumab-resistant BT-474 cell
[16] = Elimination half life in Albino mouse plasma at 1.0 mg/kg, iv; format: ADME, organism-based; conditions: read-out: beta t1/2 (converted)
[17] = Plasma clearance in Albino mouse at 1.0 mg/kg, iv; format: ADME, organism-based
[18] = AUC(0 to t) in Albino mouse at 1.0 mg/kg, iv; format: ADME, organism-based; set-up: dose 1 mg/kg, route iv; conditions: in vivo
[19] = system: MCF7; test: Antitumor activity against human MCF7 cells xenografted in mouse assessed as tumor growth inhibition by measuring T/C ratio at 25 mg/kg, iv; format: functional
[20] = system: SGC-7901; test: Antiproliferative activity against human SGC-7901 cells assessed as inhibition of cell growth by MTT assay; format: functional, cell-based
[21] = system: KYSE-150 cell line; test: Antiproliferative activity against human KYSE-150 cells assessed as inhibition of cell growth incubated for 72 hrs by MTT assay; format: functional, cell-based; conditions: KYSE-150, 72 h, pooled result: one value given for 5 cell lines, strains, targets or settings
[22] = system: A549; test: Antitumor activity against human A549 cells xenografted in Kunming mouse model assessed as inhibition of tumor growth at 20 mg/kg, iv administered twice daily for 2 weeks relative to control; format: functional; conditions: A549, 336 h
[23] = system: SGC-7901; test: Antiproliferative activity against human SGC-7901 cells assessed as inhibition of cell growth incubated for 72 hrs by MTT assay; format: functional, cell-based; conditions: SGC-7901, 72 h
[24] = system: A549; test: Antitumor activity against human A549 cells xenografted in zebrafish model assessed as reduction in tumor focal area at 2.5 uM relative to control; format: functional; set-up: scale not given: the % may be the effect or the level left
[25] = system: NCI-H1650; test: Antiproliferative activity against drug-sensitive human NCI-H1650 cells assessed as inhibition of cell growth incubated for 48 hrs by MTT assay; format: functional, cell-based; conditions: NCI-H1650, 48 h, pooled result: one value given for 9 cell lines, strains, targets or settings
[26] = system: KYSE-450; test: Antitumor activity against human KYSE-450 cells xenografted in nu/nu nude mouse model assessed as inhibition of tumor growth at 25 mg/kg, ip administered every day for 15 days relative to control; format: functional; conditions: KYSE-450, 360 h, time 15 day
[27] = system: MDA-MB-231; test: Antiproliferative activity against human MDA-MB-231 cells assessed as inhibition of cell growth incubated for 120 hrs by MTT assay; format: functional
[28] = Inhibition of Rac activation in human MDA-MB-231 cells treated for 24 hrs by Western blot analysis; format: cell-based
[29] = system: MDA-MB-435; test: Antitumor activity against GFP tagged bone metastatic variant of human MDA-MB-435 cells xenografted in athymic nu/nu mouse assessed as reduction in tumor growth at 1 mg/kg, ip administered thrice a week for 65 days relative to control; format: functional; set-up: scale not given: the % may be the effect or the level left; conditions: time 65 day
[30] = system: MDA-MB-435; test: Antitumor activity against GFP tagged bone metastatic variant of human MDA-MB-435 cells xenografted in athymic nu/nu mouse assessed as reduction in tumor growth at 10 mg/kg, ip administered thrice a week for 65 days relative to control; format: functional; set-up: scale not given: the % may be the effect or the level left; conditions: time 65 day

Structure (SMILES): COCCOc1cc2ncnc(Nc3cccc(-c4cn(Cc5cc(Br)cc(Br)c5)nn4)c3)c2cc1OCCOC
- IC50 [1]: 3310 nM
- IC50 [2]: 3310 nM
- IC50 [3]: 3310 nM
- IC50 [4]: 3310 nM
- inhibition in vivo at 25 mg/kg [5]: 90%
- inhibition in vivo at 25 mg/kg [6]: 64%

Structure (SMILES): C/C(=C(/Cl)c1ccccc1)c1nnc(-c2cn(CCCOc3ccc(C(C)(C)C)cc3)nn2)o1
- inhibition in vivo at 20 mg/kg [7]: 90%

Structure (SMILES): Cc1nnn(C)c1-c1cnc2c3cc4cnn(C)c4cc3n([C@H](c3ccccc3)C3CCOCC3)c2c1
- IC50 [8]: 1.99 nM
- IC50 [9]: 1.58 nM

Structure (SMILES): CCN1CCN(Cc2ccc(Nc3ncc(F)c(-c4cc(F)c5nc(C)n(C(C)C)c5c4)n3)nc2)CC1 [ABEMACICLIB]
- IC50 [10]: 153 nM
- IC50 [11]: 153 nM
- IC50 [12]: 153 nM
- IC50 [13]: 153 nM
- IC50 [14]: 153 nM
- IC50 [15]: 153 nM
- half-life [16]: 1 h
- clearance [17]: 43 mL/min/kg
- AUC(0-t) [18]: 487 ng·h/mL
- T/C [19]: 0.51

Structure (SMILES): COc1cc2c(c(OC)c1OC)-c1ccc(OC)c(=O)cc1[C@@H](NC(C)=O)CC2 [COLCHICINE]
- IC50 [4]: 43 nM
- IC50 [20]: 43 nM

Structure (SMILES): C#Cc1cccc(Nc2ncnc3cc(OCCOC)c(OCCOC)cc23)c1 [ERLOTINIB]
- inhibition in vivo at 25 mg/kg [5]: 90%
- inhibition in vivo at 25 mg/kg [6]: 36%

Structure (SMILES): Cc1nnn(C)c1-c1cnc2c3ccc(C(C)(C)O)cc3n([C@H](c3ccccc3)C3CCOCC3)c2c1 [EZOBRESIB]
- IC50 [8]: 6.57 nM
- IC50 [9]: 4.97 nM

Structure (SMILES): O=c1[nH]cc(F)c(=O)[nH]1 [FLUOROURACIL]
- IC50 [21]: 7730 nM
- inhibition in vivo at 20 mg/kg [22]: 64.7%
- IC50 [23]: 26300 nM

Structure (SMILES): COc1cc2ncnc(Nc3ccc(F)c(Cl)c3)c2cc1OCCCN1CCOCC1 [GEFITINIB]
- Activity [24]: 18.95%

Structure (SMILES): C#Cc1cccc(Nc2ncnc3cc4c(cc23)OCCOCCOCCO4)c1 [ICOTINIB]
- IC50 [25]: > 19200 nM
- inhibition in vivo at 25 mg/kg [26]: 15%

Structure (SMILES): CCn1c2ccccc2c2cc(-n3nncc3-c3ccccc3)ccc21 [MBQ-167]
- GI50 [27]: 130 nM
- IC50 [28]: 103 nM
- Activity [29]: 80%
- Activity [30]: 95%
